For two compounds, IC50 results are on record in patent US20220226470A1, “ANTIBODIES AND METHODS FOR TREATMENT OF INFLUENZA A INFECTION” (HUMABS BIOMED SA, priority 2019, published 2022).

SMILES strings stand for the structures. pIC50: −log10 of the molar value.

Common to all, as to test: microbe, parasite or virus in culture
Holding throughout (format): cell-based

One assay relates to H3N2 and H1N1 strains. The conditions noted are these: Influenza A virus, MDCK, read-out: relative calculated IC50.
The test system of another assay is H1N1 virus. The conditions noted are these: Influenza A virus, H1N1, MDCK.
A further assay relates to H3N2 virus. The conditions noted are these: Influenza A virus, H3N2, MDCK.

On to `CC(=O)N[C@H]1[C@H]([C@H](O)[C@H](O)CO)OC(C(=O)O)=C[C@@H]1N=C(N)N` [zanamivir, reference compound], for which the pIC50 in the assay with H3N2 and H1N1 strains is 7.86 to 7.97. Turning to `CCOC(=O)C1=C[C@@H](OC(CC)CC)[C@H](NC(C)=O)[C@@H](N)C1` [oseltamivir, reference compound], the results for the pIC50 with H1N1 virus and in the assay on H3N2 virus were 8.04 and 8.15, respectively.
